Results as given in patent publication US20030143228A1, “Human telomerase reverse transcriptase as a class-II restricted tumor-associated antigen” (Baylor College of Medicine, priority 2001, published 2003).
Entries after “also recorded” stand apart in the source; their conditions may differ.

B1: clone 8: positive clone of the DU145 tumor retrogen library; ORF encodes a 291 aa hTRT polypeptide (SEQ.ID.NO.3) (nucleic acid)
DNA: ATCCTGGCCAAGTTCCTGCACTGGCTGATGAGTGTGTACGTCGTCGAGCTGCTCAGGTCTTTCTTTTATGTCACGGAGACCACGTTTCAAAAGAACAGGCTCTTTTTCTACCGGAAGAGTGTCTGGAGCAAGTTGCAAAGCATTGGAATCAGACAGCACTTGAAGAGGGTGCAGCTGCGGGAGCTGTCGGAAGCAGAGGTCAGGCAGCATCGGGAAGCCAGGCCCGCCCTGCTGACGTCCAGACTCCGCTTCATCCCCAAGCCTGACGGGCTGCGGCCGATTGTGAACATGGACTACGTCGTGGGAGCCAGAACGTTCCGCAGAGAAAAGAGGGCCGAGCGTCTCACCTCGAGGGTGAAGGCACTGTTCAGCGTGCTCAACTACGAGCGGGCGCGGCGCCCCGGCCTCCTGGGCGCCTCTGTGCTGGGCCTGGACGATATCCACAGGGCCTGGCGCACCTTCGTGCTGCGTGTGCGGGCCCAGGACCCGCCGCCTGAGCTGTACTTTGTCAAGGTGGATGTGACGGGCGCGTACGACACCATCCCCCAGGACAGGCTCACGGAGGTCATCGCCAGCATCATCAAACCCCAGAACACGTACTGCGTGCGTCGGTATGCCGTGGTCCAGAAGGCCGCCCATGGGCACGTCCGCAAGGCCTTCAAGAGCCACGTCTCTACCTTGACAGACCTCCAGCCGTACATGCGACAGTTCGTGGCTCACCTGCAGGAGACCAGCCCGCTGAGGGATGCCGTCGTCATCGAGCAGAGCTCCTCCCTGAATGAGGCCAGCAGTGGCCTCTTCGACGTCTTCCTACGCTTCATGTGCCACCACGCCGTGCGCATCAGGGGCAAGTCCTACGTCCAGTGCCAGGGG
modifications: Human
B2: clone 35: positive clone of the DU145 tumor retrogen library; ORF encodes a 171 aa hTRT polypeptide (SEQ.ID.NO.4) (nucleic acid)
DNA: ATCCCGCAGGGCTCCATCCTCTCCACGCTGCTCTGCAGCCTGTGCTACGGCGACATGGAGAACAAGCTGTTTGCGGGGATTCGGCGGGACGGGCTGCTCCTGCGTTTGGTGGATGATTTCTTGTTGGTGACACCTCACCTCACCCACGCGAAAACCTTCCTCAGGACCCTGGTCCGAGGTGTCCCTGAGTATGGCTGCGTGGTGAACTTGCGGAAGACAGTGGTGAACTTCCCTGTAGAAGACGAGGCCCTGGGTGGCACGGCTTTTGTTCAGATGCCGGCCCACGGCCTATTCCCCTGGTGCGGCCTGCTGCTGGATACCCGGACCCTGGAGGTGCAGAGCGACTACTCCAGCTATGCCCGGACCTCCATCAGAGCCAGTCTCACCTTCAACCGCGGCTTCAAGGCTGGGAGGAACATGCGTCGCAAACTCTTTGGGGTCTTGCGGCTGAAGTGTCACAGCCTGTTTCTGGATTTGCAGGTGAACAGCCTCCAGACGGTGTGCACCAACATCTACAAG
modifications: Human

Legend:
Assay type in all cases: cell-based, human
[1] = test system: Donor's peripheral blood mononuclear cells (PBMCs); assay: Peptide T-cell proliferation assay with donor PBMC; details: peptide 20 μg/ml; positive if cpm at least 2.5 times PBMC without peptide
Method: Donor's peripheral blood mononuclear cells (PBMCs) were plated in 96-well plates (Costar) at 200,000 cells/well in AIM-V media (Gibco). Peptides were added into each well at the concentration of 20 μg/ml. After a week of incubation, the culture medium was removed and cells were resuspended in AIM-V media, seeded onto test plates and re-stimulated with autologous irradiated (2,000-6,000 rads) PBMC pulsed with the same peptides used in the primary stimulation (20 μg/ml). On day 2 of the re-stimulation, [^3H]-thymidine (1 uCi/well) was added to the test plates, and its incorporation by T-cells was measured on day 3. […] T-cell clones were established from positive T-cell lines by limiting dilution.
Because Th cells generally prefer to recognize peptides of about 15 residues in length, ten predicted peptides corresponding to promiscuous binding motifs of 15 mer or longer were synthesized and purified (Table 2). Human T-cell responses to these peptides were assessed by isolating PBMC from HLA-typed healthy donors with HLA-DR1, DR3, DR15, or other alleles and seeding them into 96-well plates that were subsequently stimulated with each peptide. After a week of stimulation, the cultures were tested for their capacity to respond to the peptides presented by autologous PBMC.

[2] = test system: peptide-specific CD4+ T-cell clones; assay: Specificity and MHC restriction of peptide-specific T-cell clones (antibody blocking)
Method: The T916-positive T-cell clone, T631-positive T-cell or T672-positive T-cell (2×10^4 cells/well) were re-stimulated with autologous PBMC-derived DC (1×10^3/well) (Zhou et al., 1996) pulsed with T916, T631, T672 or irrelevant 15-mer peptides derived from HER-2 (SEQ.ID.NO.78, LSTDVGSCTLVCPLH) and EBV (SEQ.ID.NO.79, AYFMVFLQTHIFAEV) at the same concentration of 20 μg/ml in the presence of anti-HLA-DR (G46.4), anti-HLA-ABC (class I, G46.2.6), anti-CD4, or anti-CD8 (20 μg/ml, BD PharMingen). 48-72 hr later, GM-CSF release and [^3H]-thymidine incorporation of the T-cells were measured.
Further, antibody blocking assays were used to test whether the T-cell responses to peptides were MHC class II-restricted. […] Flow cytometric analysis of the responses to T-cell clones (FIG. 14A-FIG. 14F) confirmed clones were CD4-positive and CD 8-negative.

[3] = test system: peptide-specific CD4+ T-cell clones; assay: Peptide titration of T-cell clones; details: autologous PBMCs
Method: To evaluate the avidity of hTRT916 and hTRT672 T-cell clones for their ligands, peptide titration curves were generated with autologous PBMCs. The maximal cell proliferation of the hTRT916 T-cell clone was obtained at a peptide concentration of 10 μg/ml, compared with only at a peptide concentration of 1 μg/ml for the hTRT672 T-cell clone (FIG. 7).
Yet further, the avidity of the hTRT631 T-cell clone for its ligand was also evaluated. Peptide titration curves were generated with autologous PBMCs. The half maximal cell proliferation of the hTRT631 T-cell clone was obtained at a peptide concentration of 0.1 μg/ml (FIG. 8).
The effectiveness of antitumor immunotherapy based on CD8+ and CD4+ T-cells depends on the ability of the latter to recognize naturally processed antigen presented by APC. This property depends in turn on correct processing of the epitope in the MHC class II pathway and the avidity of the epitope for its MHC/TCR-complex (Kobayashi, 2000). To determine whether the newly identified peptides were naturally processed antigens, the avidity of the specific T-cell clones for their ligands was evaluated. Peptide titration curves were generated with autologous DC as APC. For peptides hTRT631, hTRT766, hTRT787, the peptide concentrations required to obtain half of the maximal proliferation exceeded 1.0 μM (FIG. 15A-FIG. 15F).

[4] = test system: recombinant hTRT protein; assay: T-cell recognition of natively processed hTRT protein presented by autologous DC
Source text: A recombinant hTRT protein and an irrelevant Neu protein were produced and used to pulse PBMC-derived DC. Recombinant hTRT and Neu(extracellular domain)-Fc fusion proteins, were produced in SF9 insect cells by use of a baculovirus expression system (Gibco), purified by affinity binding to Protein A (Sigma), and tested by Western blot analysis with anti-hTRT (Santa Cruz) or anti-Neu (Oncogene) antibodies, respectively.
The T916-specific T-cells, T631-specific T-cells or T672-specific T-cells (2×10^4/well) were stimulated with irradiated autologous PBMC-derived DC (Zhou et al., 1996) (2×10^3/well) pulsed with recombinant hTRT-Fc proteins (1 μg/ml) in the presence or absence of anti-HLA-DR antibodies (20 μg/ml). The T-cell clones were also stimulated with DC pulsed with irrelevant recombinant Neu-Fc proteins (1 μg/ml). Recombinant hTRT Fc fusion proteins and Neu (extracellular domain)-Fc proteins were produced from […], purified with a Protein-A purification kit (Pierce), and confirmed by Western blot analysis with anti-hTRT (Santa Cruz) or anti-Neu (Oncogene) antibodies. 48 hr later, [^3H]-thymidine incorporation of the T-cells was then measured.
The ability of these T-cell clones to recognize naturally processed antigen in the form of recombinant hTRT protein was tested in experiments in which autologous PBMC or DC were used as APC and recombinant hTRT proteins as a source of antigen (FIG. 16).

[5] = test system: HLA-DR7+/hTRT+ LCL cells; assay: T-cell direct responses to hTRT-positive cells
Method: The T-cells (5×10^3/well) were co-cultured with the irradiated HLA-DR7+/hTRT+ LCL cells (1×10^4/well) in the presence or absence of the anti-HLA-DR antibody (20 μg/ml). IFN-γ production of the T-cells was monitored by ELISPOT assay and cell proliferation was measured by [^3H]-thymidine incorporation compared with anti-DR sample.

[6] = test system: T-cell clone; assay: Flow cytometric analysis of T-cell clones; details: peptide-specific T-cell clone, anti-CD4-FITC / CD8-PE staining
Source text: The T-cell clone was double-stained with anti-human CD4-FITC and CD8-PE antibodies or isotype controls (mouse IgG-FITC and IgG-PE) (BD PharMingen). The cells were then examined by flow cytometric analysis (Chen et al., 1997). More than 99% of the T-cell population were CD4-positive. Flow cytometric analysis verified that the T-cell clones were exclusively CD4-positive (FIG. 9A and FIG. 9B). Similar results were obtained from four different T916-specific T-cell clones. Taken together, the findings indicate that HLA-DR7-restricted epitopes reside in clones 8 and 35 and induce hTRT-specific human CD4+ T-cell responses.

[7] = test system: T-cells primed by the pool 5-transduced DC; assay: DC-based immunogenetic screening of tumor retrogen library, [3H]-thymidine incorporation; details: T-cells 2×10^5, DC 2×10^4
Method: cDNA from the mRNA of prostate tumor cells (DU145) were generated by cDNA synthesis kits (CLONTECH). cDNA with sizes of 400 bp or higher were digested with Sau3A I (Bio-Lab) after fractionation with SizeSep™ 400 columns (Amersham Pharmacia Biotech) and inserted into the BamH I-cut pSBFc-DS. Ligated DNA was then transformed into E. coli, and library quality was confirmed by examining dozens of individual clones with different insert sizes and DNA sequences. Individual colonies were then cultured individually and pooled for the isolation of plasmid DNA. Recombinant retroviral retrogen vectors (pools) were generated by transfection of the plasmid DNA pools into packaging cells with GeneJammer (Stratagene). Two or three days later, the culture medium containing the retroviral vectors was harvested, filtered, and then used for DC transduction or stored at −80° C.
DC-based immunogenetic screening approach was used to identify unknown class II-restricted TAA from a tumor retrogen library.
After several rounds of screening of 12,000 individual clones in the library, two sub-pools (5-VI-C and -D) containing genes capable of stimulating CD4+ T-cells were identified. The 40 individual clones in the sub-pools 5-VI-C and -D were individually transduced into autologous CD34+-derived DC. […]

Molecule	proliferative T-cell responses from the donors' T-cells [1]	response of T-cells to autologous PBMC pulsed with peptide [2]	response of the peptide-specific T-cells to irrelevant peptides ([2]; irrelevant 15-mer peptides (HER-2, EBV/EBNA1) or non-corresponding hTRT peptides, 20 μg/ml)	restriction of T-cell response (antibody blocking) ([2]; peptide-pulsed autologous APC with anti-HLA-DR, anti-HLA class I, anti-HLA-DQ, anti-CD4 or anti-CD8 antibodies)	peptide concentration at maximal cell proliferation of the T-cell clone [3] [µg/mL]	epitope classification (naturally processed or cryptic) [4]	response of peptide-specific T-cells to irrelevant Neu protein presented by autologous DC ([4]; Neu-Fc 1 μg/ml)	recognition of hTRT protein after processing and presentation by autologous APC ([4]; peptide-specific T-cell clone, DC or PBMC pulsed with recombinant hTRT protein)	response of peptide-specific CD4+ T-cells to hTRT+/DR7+ LCL ([5]; IFN-γ ELISPOT and [3H]-thymidine incorporation)	effect of anti-HLA-DR antibody on T-cell response to hTRT+/DR7+ LCL ([5]; antibody 20 μg/ml)	response of peptide-specific CD4+ T-cells to hTRT+ LCL (DR3+) ([5]; different class II genotype)	T-cell population CD4-positive [6]	T-cell response to autologous DC transduced with individual clones [7]
GTAFVQMPAHGLFPW [Peptide T916]	elicited proliferative T-cell responses	dosage-dependent manner	did not respond	both CD4- and HLA-DR-restricted; also recorded: MHC-II restricted epitopes	10	are processed	did not respond	recognize the hTRT proteins	active proliferation and production of INF-γ	drastically inhibited	did not respond	More than 99%	–
B1	–	–	–	–	–	–	–	–	–	–	–	–	strong T-cell response
B2	–	–	–	–	–	–	–	–	–	–	–	–	strong T-cell response
